Data taken from US6080724A, “Peptides which can be used as vectors for the intracellular addressing of active molecules” (Centre National de la Recherche Scientifique (CNRS), priority 1995, dated 2000).

Test system: E15 cortex and striatum cells
Test: Cellular localization of biotinylated peptides by confocal microscopy (fluorescent streptavidin)
Format: cell-based
Settings: 2 h
Method: The cells were then washed, fixed and stained with fluorescent streptavidin.
The entry of the peptides of Table II was tested only by confocal microscopy; indeed, the absence of lysine in these peptides makes the attachments very difficult and therefore requires a very rapid observation which is incompatible with transfers onto filters or ELISA tests (multiple washes).
The E15 cortex and striatum cells are cultured on glass coverslips at a density of 25,000 cells/cm^2 for 2 days. The peptides are all added at a final concentration of 20 μM. […] The sections observed by confocal microscopy are presented in FIGS. 3 (37° C.) and 4 (4° C.). The cells which have integrated the peptide appear fluorescent, on a black background.
E15 cortex and striatum cells are cultured on glass coverslips at a density of 25,000 cells/cm^2 for 2 days. The peptides are added at a final concentration of 20 μM for peptide 43-58 and of 2 μM for the others and the cells are incubated for 2 h at 37° C. […] The results are illustrated in FIG. 6.

Substance | internalization and cytoplasmic and nuclear addressing (localization) (2 μM, 37° C., streptavidin-FITC) | internalization (20 μM, 37° C. and 4° C.) | nuclear addressing (20 μM, 37° C. and 4° C.)
Biot-Apa-Arg-Leu-Arg-Arg-Leu-Leu-Arg-Arg-Leu-Leu-Arg-Arg-Leu-Arg-Arg [L/R] | found in a fraction which is apparently of the vesicular type, probably of endocytic character |  | 
Biot-Apa-Arg-Gln-Pro-Lys-Ile-Trp-Phe-Pro-Asn-Arg-Arg-Lys-Pro-Trp-Lys-Lys [3Pro] |  | does not prevent internalization | appears to interfere with nuclear addressing
